Assay results from patent publication US9999622B2, “Pyrazolothiazole compound and medicine comprising same” (NIPPON SHINYAKU CO., LTD., priority 2014, dated 2018).
Structures can show the parent of a compound that is named as a salt.

Assays:
Format in all cases: biochemical
JAK2 = biological target: T1, JAK2 (Homo sapiens, UniProt O60674); test: JAK tyrosine kinase inhibitory activity in the presence of 1 mM ATP (ELISA), JAK2
T1 construct: purchased Carna Biosciences, Inc
In short: (§1)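 Recombinant kinase (7.5 nM JAK1; 0.75 nM JAK2, JAK3 working dilutions) reacted 1 h at 30 °C with 1 mM ATP in Tris-HCl pH 7.5, Tween-20, DTT, on streptavidin plates. Phosphotyrosine detected by HRP anti-pTyr antibody ELISA, TMB absorbance at 450 nm; duplicate wells, DMSO as negative control.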

JAK3 = biological target: T2, JAK3 (Homo sapiens, UniProt P52333); test: JAK tyrosine kinase inhibitory activity in the presence of 1 mM ATP (ELISA), JAK3
T2 construct: purchased Carna Biosciences, Inc
T2 sequence (P52333 1-1124): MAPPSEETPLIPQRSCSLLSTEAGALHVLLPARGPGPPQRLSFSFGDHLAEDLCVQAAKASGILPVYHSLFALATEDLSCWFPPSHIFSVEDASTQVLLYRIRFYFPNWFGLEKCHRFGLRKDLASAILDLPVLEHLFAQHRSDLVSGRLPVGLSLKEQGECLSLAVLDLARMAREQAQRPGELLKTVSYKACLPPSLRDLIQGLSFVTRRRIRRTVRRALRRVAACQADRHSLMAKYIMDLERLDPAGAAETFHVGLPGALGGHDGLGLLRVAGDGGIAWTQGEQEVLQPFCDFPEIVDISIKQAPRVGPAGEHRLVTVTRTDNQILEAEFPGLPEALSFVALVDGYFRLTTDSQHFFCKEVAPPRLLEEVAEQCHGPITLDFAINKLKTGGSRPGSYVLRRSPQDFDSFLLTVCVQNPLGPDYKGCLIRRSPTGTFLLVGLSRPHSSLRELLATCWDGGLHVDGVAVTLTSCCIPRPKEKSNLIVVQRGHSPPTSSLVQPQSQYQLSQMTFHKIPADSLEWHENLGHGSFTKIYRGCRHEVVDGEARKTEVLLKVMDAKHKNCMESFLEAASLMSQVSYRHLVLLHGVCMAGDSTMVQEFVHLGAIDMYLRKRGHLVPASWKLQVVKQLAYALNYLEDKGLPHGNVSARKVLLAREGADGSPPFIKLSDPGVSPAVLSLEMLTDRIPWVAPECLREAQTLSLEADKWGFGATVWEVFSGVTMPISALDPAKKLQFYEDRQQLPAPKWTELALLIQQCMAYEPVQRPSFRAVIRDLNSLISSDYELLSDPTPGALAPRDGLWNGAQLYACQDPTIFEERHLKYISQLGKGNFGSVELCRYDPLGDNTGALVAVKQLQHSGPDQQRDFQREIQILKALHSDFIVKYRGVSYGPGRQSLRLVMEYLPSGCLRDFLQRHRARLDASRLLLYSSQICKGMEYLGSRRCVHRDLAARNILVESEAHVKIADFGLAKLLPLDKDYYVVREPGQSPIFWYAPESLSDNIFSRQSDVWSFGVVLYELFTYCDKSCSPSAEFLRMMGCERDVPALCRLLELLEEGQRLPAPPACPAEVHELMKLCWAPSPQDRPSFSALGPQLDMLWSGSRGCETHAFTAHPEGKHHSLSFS
In short: as §1

JAK1 = biological target: T3, JAK1 (Homo sapiens, UniProt P23458); test: JAK tyrosine kinase inhibitory activity in the presence of 1 mM ATP (ELISA), JAK1
T3 construct: purchased Carna Biosciences, Inc
T3 sequence (P23458 whole entry): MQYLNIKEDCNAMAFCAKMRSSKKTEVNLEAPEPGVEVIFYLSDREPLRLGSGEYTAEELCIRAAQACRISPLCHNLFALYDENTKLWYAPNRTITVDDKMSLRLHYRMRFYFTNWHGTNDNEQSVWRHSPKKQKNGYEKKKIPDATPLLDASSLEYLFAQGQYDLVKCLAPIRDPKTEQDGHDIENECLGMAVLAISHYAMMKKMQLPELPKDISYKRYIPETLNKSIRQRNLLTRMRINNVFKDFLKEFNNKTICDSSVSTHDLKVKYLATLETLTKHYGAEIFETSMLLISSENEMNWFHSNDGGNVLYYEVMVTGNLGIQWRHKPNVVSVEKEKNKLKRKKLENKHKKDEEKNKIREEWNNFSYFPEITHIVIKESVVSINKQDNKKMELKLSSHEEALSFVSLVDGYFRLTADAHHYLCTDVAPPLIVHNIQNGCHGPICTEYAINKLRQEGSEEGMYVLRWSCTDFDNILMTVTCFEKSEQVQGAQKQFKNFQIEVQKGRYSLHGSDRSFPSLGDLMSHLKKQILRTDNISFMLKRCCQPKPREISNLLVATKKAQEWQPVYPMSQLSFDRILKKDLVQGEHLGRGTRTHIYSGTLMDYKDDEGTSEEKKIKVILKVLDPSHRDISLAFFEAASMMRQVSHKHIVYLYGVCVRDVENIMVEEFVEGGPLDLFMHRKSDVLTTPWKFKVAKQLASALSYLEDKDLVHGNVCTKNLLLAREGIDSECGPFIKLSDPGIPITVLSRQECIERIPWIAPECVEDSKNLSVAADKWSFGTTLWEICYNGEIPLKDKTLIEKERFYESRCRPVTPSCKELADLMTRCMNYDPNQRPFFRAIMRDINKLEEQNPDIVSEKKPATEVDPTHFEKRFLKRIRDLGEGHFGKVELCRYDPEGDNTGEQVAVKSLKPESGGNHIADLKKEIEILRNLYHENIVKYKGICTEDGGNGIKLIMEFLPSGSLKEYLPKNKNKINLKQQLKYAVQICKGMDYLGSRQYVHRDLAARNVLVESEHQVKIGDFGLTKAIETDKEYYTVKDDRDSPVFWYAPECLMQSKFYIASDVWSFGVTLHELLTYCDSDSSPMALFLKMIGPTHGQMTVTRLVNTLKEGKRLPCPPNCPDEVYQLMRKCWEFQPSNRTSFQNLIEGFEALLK
In short: as §1

T1 sequence (O60674 whole entry): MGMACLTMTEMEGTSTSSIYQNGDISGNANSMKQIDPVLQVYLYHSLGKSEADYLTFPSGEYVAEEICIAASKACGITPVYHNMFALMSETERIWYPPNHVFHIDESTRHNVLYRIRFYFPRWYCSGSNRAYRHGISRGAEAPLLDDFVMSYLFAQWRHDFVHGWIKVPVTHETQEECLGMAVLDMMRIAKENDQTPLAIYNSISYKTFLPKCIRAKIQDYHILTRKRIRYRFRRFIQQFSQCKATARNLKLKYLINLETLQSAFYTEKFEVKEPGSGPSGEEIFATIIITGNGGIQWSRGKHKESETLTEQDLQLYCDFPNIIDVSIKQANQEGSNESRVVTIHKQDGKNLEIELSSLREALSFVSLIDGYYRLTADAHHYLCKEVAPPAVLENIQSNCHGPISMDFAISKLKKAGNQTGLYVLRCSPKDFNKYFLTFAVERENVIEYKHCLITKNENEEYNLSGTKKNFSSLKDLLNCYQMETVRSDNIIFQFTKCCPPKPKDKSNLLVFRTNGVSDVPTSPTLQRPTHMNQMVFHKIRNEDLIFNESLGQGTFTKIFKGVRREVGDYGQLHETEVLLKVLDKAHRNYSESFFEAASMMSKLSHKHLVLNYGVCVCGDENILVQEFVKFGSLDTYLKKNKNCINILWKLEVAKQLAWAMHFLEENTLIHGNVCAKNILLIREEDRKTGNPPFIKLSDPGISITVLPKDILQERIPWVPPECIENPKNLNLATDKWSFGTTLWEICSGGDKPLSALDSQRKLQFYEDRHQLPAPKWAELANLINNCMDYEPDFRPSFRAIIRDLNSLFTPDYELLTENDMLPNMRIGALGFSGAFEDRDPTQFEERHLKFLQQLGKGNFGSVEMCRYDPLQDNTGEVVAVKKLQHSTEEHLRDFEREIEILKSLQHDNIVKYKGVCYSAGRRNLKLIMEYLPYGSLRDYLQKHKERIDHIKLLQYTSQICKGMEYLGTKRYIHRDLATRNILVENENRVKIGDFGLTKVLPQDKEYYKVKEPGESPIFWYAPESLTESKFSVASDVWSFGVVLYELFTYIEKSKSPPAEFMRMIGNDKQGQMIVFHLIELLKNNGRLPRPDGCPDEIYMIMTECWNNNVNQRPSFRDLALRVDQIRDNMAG

| Structure (SMILES) | IC50 (JAK2) [nM] | IC50 (JAK3) [nM] | IC50 (JAK1) [nM] |
| --- | --- | --- | --- |
| CC(C)(C)Nc1cc(C(=O)N2CCC(NC(=O)C3CC3)CC2)nc(-c2cnn3ccsc23)n1 [Example 36, N-(1-{[6-(tert-Butylamino)-2-(pyrazolo[5,1-b][1,3]thiazol-7-yl)pyrimidin-4-yl]carbonyl}piperidin-4-yl)cyclopropanecarboxamide] | 620 | > 10000 | 86 |
| Cc1ccccc1C(=O)NC1CCN(C(=O)c2cc(N[C@@H](C)C3CC3)nc(-c3cnn4ccsc34)n2)CC1 [Example 184, N-1-[6-[(1S)-1-cyclopropylethyl]amino-2-(pyrazolo[5,1-b][1,3]thiazol-7-yl)pyrimidine-4-carbonyl]piperidin-4-yl-2-methylbenzamide] | > 10000 | 470 | 62 |
| COC(=O)NC1CCN(C(=O)c2cc(NC3CCN(C(=O)OC(C)(C)C)CC3)nc(-c3cnn4ccsc34)n2)CC1 [Example 142, tert-Butyl 4-{[6-({4-[(methoxycarbonyl)amino]piperidin-1-yl}carbonyl)-2-(pyrazolo[5,1-b][1,3]thiazol-7-yl)pyrimidin-4-yl]amino}piperidine-1-carboxylate] | > 10000 | > 10000 | 1200 |
| O=C(NC1CCN(C(=O)c2cc(NC3CCNCC3)nc(-c3cnn4ccsc34)n2)CC1)C1CC1 [Example 181, N-(1-6-[(piperidin-4-yl)amino]-2-(pyrazolo[5,1-b][1,3]thiazol-7-yl)pyrimidine-4-carbonylpiperidin-4-yl)cyclopropanecarboxamide dihydrochloride] | > 10000 | > 10000 | 860 |
| COc1ccccc1C(=O)NC1CCN(C(=O)c2cc(N[C@@H](C)C3CC3)nc(-c3cnn4ccsc34)n2)CC1 [Example 186, N-1-[6-[(1S)-1-cyclopropylethyl]amino-2-(pyrazolo[5,1-b][1,3]thiazol-7-yl)pyrimidine-4-carbonyl]piperidin-4-yl-2-methoxybenzamide] | > 10000 | 580 | 81 |
| CC(C)C(=O)NC1CCN(C(=O)c2cc(N[C@H](C)c3ccc(F)cc3)nc(-c3cnn4ccsc34)n2)CC1 [Example 79, N-(1-{[6-{[(1R)-1-(4-Fluorophenyl)ethyl]amino}-2-(pyrazolo[5,1-b][1,3]thiazol-7-yl)pyrimidin-4-yl]carbonyl}piperidin-4-yl)-2-methylpropanamide] | 3300 | > 10000 | 870 |
| CC(=O)NC1CCN(C(=O)c2cc(N[C@@H](C)C(C)(C)C)nc(-c3cnn4ccsc34)n2)CC1 [Example 4, N-(1-{[6-{[(2S)-3,3-Dimethylbutan-2-yl]amino}-2-(pyrazolo[5,1-b][1,3]thiazol-7-yl)pyrimidin-4-yl]carbonyl}piperidin-4-yl)acetamide] | 730 | 3000 | 210 |
| C[C@@H](Nc1cc(C(=O)N2CCC(NC(=O)C3CCCCC3)CC2)nc(-c2cnn3ccsc23)n1)C(C)(C)C [Example 182, N-1-[6-[(2R)-3,3-dimethylbutan-2-yl]amino-2-(pyrazolo[5,1-b][1,3]thiazol-7-yl)pyrimidine-4-carbonyl]piperidin-4-ylcyclohexanecarboxamide] | 5400 | 1700 | 88 |
| N#CC1(Nc2cc(C(=O)N3CCC(O)CC3)nc(-c3cnn4ccsc34)n2)CC1 [Example 117, 1-({6-[(4-Hydroxypiperidin-1-yl)carbonyl]-2-(pyrazolo[5,1-b][1,3]thiazol-7-yl)pyrimidin-4-yl}amino)cyclopropanecarbonitrile hydrochloride] | > 10000 | 5700 | 1400 |
| CCC(=O)NC1CCN(C(=O)c2cc(OCC(CC)CC)nc(-c3cnn4ccsc34)n2)CC1 [Example 114, N-(1-{[6-(2-Ethylbutoxy)-2-(pyrazolo[5,1-b][1,3]thiazol-7-yl)pyrimidin-4-yl]carbonyl}piperidin-4-yl)propanamide] | 1200 | 2700 | 360 |
| CCCCC(=O)NC1CCN(C(=O)c2cc(N[C@@H](C)C3CC3)nc(-c3cnn4ccsc34)n2)CC1 [Example 190, N-1-[6-[(1S)-1-cyclopropylethyl]amino-2-(pyrazolo[5,1-b][1,3]thiazol-7-yl)pyrimidine-4-carbonyl]piperidin-4-ylpentanamide] | 6600 | 1000 | 65 |
| C[C@H](Nc1cc(C(=O)N2CCC(NC(=O)OCC(F)F)CC2)nc(-c2cnn3ccsc23)n1)C(C)(C)C [Example 99, 2,2-Difluoroethyl (1-{[6 {[(2S) 3,3-dimethylbutan-2-yl]amino}-2-(pyrazolo[5,1-b][1,3]thiazol-7-yl)pyrimidin-4-yl]carbonyl}piperidin-4-yl)carbamate] | 790 | 2600 | 19 |
| CCC(=O)N1CCC(Nc2cc(C(=O)N3CCC(NC(=O)OC)CC3)nc(-c3cnn4ccsc34)n2)CC1 [Example 198, Methyl (1-6-[(1-propanoylpiperidin-4-yl)amino]-2-(pyrazolo[5,1-b][1,3]thiazol-7-yl)pyrimidine-4-carbonylpiperidin-4-yl)carbamate] | > 10000 | > 10000 | 1500 |
| CCC1CCCCN1c1cc(C(=O)N2CCC(NC(=O)C3CC3)CC2)nc(-c2cnn3ccsc23)n1 (stereo not drawn) [Example 157, N-(1-{[6-(2-ethylpiperidin-1-yl)-2-(pyrazolo[5,1-b][1,3]thiazol-7-yl)pyrimidin-4-yl]carbonyl}piperidin-4-yl)cyclopropanecarboxamide] | 5100 | > 10000 | 310 |
| C[C@H](Nc1cc(C(=O)N2CCC(NC(=O)OCC(F)F)CC2)nc(-c2cnn3ccsc23)n1)C1CC1 [Example 98, 2,2-Difluoroethyl (l-{[6-{[(1S)-1-cyclopropylethyl]amino}-2-(pyrazolo[5,1-b][1,3]thiazol-7-yl)pyrimidin-4-yl]carbonyl}piperidin-4-yl)carbamate] | 1400 | 1400 | 37 |
| CCC(CC)Nc1cc(C(=O)N2CCC(NC(=O)C3CC3)CC2)nc(-c2cnn3ccsc23)n1 [Example 124, N-(1-{[6-(Pentan-3-ylamino)-2-(pyrazolo[5,1-b][1,3]thiazol-7-yl)pyrimidin-4-yl]carbonyl}piperidin-4-yl)cyclopropanecarboxamide] | 1700 | 2200 | 220 |
| COCC(=O)NC1CCN(C(=O)c2cc(N[C@H](C)C(C)(C)C)nc(-c3cnn4ccsc34)n2)CC1 [Example 93, N-(1-{[6-{[(2R)-3,3-Dimethylbutan-2-yl]amino}-2-(pyrazolo[5,1-b][1,3]thiazol-7-yl)pyrimidin-4-yl]carbonyl}piperidin-4-yl)-2-methoxyacetamide] | 1200 | 1000 | 40 |
| O=C(NC1CCN(C(=O)c2cc(NCC3(COC(F)F)CCC3)nc(-c3cnn4ccsc34)n2)CC1)C1CC1 [Example 9, N-[1-({6-[({1-[(Difluoromethoxy)methyl]cyclobutyl}methyl)amino]-2-(pyrazolo[5,1-b][1,3]thiazol-7-yl)pyrimidin-4-yl}carbonyl)piperidin-4-yl]cyclopropanecarboxamide] | 960 | 2000 | 19 |
